Measured values as given in paper PMC6600574 (Molecules, 2019).
Read-outs that look alike come from different tables or passages of the source.

How the values were obtained:
[1] = Nitric oxide scavenging assay (nitroprusside, Griess reagent); format: biochemical; settings: 10 mM nitroprusside, 90 min, read-out: NO IC50
Protocol: Ethanol (10%) was used as a blank. Nitroprusside (50 μL) at a concentration of 10 mM was added to all the wells. The plates were incubated for 90 min at room temperature. After incubation, Griess reagent (100 μL) was added to all the wells, except for the color controls (negative controls) where instead distilled water was added. The absorbances were read at a wavelength of 546 nm using a BIO-TEK Power-Wave XS multiplate reader. From the absorbances an IC50 value was determined.

[2] = tested on: CYP 1B1 (liver microsomes); test: Inhibition of hepatic microsome-catalyzed CYP oxidation; format: in vitro ADME, human; settings: CYP 1B1, substrate TFD008_1, liver microsomes
Protocol: (§1) Incubations were carried out in a total volume of 100 µl of 100 mM Tris-HCl buffer (pH 7.4) in all black, flat-bottom Costar 96-well plates (Corning Incorporated, Corning, NY, USA). […] The samples were then preincubated at 37 °C for 10 min. The reactions were initiated by the addition of NADPH, and 0–10 µM 7-hydroxycoumarin was used as the standard. The fluorescent signal was measured with a Victor^2 1420 multilabel plate counter (PerkinElmer Lifesciences Wallac, Turku, Finland) with excitation and emission wavelengths of 405 and 460 nm, respectively. Fluorescence was monitored every 2 min for 40 min from where the concentration was calculated at the various time points. From these, oxidation rates (µM/min) and the relative remaining activity of the sample at different concentrations were calculated. The data were fit to sigmoidal dose-response curves with nonlinear regression, and IC50 values (the concentration at which the sample reduced the metabolism of the CYP substrate by 50%) were determined. […] This was analyzed using nonlinear equations in Graph Pad Prism, which produced IC50 values and its 95% confidence interval as the results.

HepG2 cell line = tested on: HepG2 cell line; design: method as in Etemad et al. (2015) [19]; settings: after 24 and 72 h, highest concentration tested; ref Etemad et al. (2015) [19]; read-out: HepG2 cellular toxicity IC50; cited from earlier work
[3] = design: method as in Chen et al. (2012) [15]; settings: DPPH in methanol; ref Chen et al. (2012) [15]; cited from earlier work
[4] = design: method as in Koo et al. (2006) [16]; settings: ref Koo et al. (2006) [16]; read-out: DPPH radical scavenging EC50; cited from earlier work
[5] = target: T1, CYP 3A4 (liver microsomes) (Homo sapiens, UniProt P08684); test: Inhibition of hepatic microsome-catalyzed CYP oxidation; format: in vitro ADME; settings: CYP 3A4, substrate OCA369, liver microsomes; read-out: Microsomal IC50 (µM) with 95% Confidence Intervals
T1 construct: from tissue; host or cells: human liver microsomes
T1 sequence (P08684 whole entry): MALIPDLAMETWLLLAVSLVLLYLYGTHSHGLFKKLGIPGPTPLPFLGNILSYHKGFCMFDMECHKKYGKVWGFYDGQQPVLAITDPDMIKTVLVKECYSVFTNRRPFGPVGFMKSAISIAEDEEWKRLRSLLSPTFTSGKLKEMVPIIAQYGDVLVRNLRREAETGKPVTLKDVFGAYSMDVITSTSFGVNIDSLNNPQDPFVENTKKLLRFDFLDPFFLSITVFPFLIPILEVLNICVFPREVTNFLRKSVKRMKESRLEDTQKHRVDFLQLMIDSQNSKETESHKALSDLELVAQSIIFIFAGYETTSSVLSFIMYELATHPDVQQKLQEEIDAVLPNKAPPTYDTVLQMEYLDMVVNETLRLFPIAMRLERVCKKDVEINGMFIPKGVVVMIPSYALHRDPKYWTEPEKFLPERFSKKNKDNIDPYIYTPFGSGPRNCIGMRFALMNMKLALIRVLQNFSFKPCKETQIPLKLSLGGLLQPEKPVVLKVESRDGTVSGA
Protocol: as §1

[6] = target: T2, CYP 1A2 (liver microsomes) (Homo sapiens, UniProt P05177); test: as above; format: in vitro ADME; settings: CYP 1A2, substrate OCA349, liver microsomes; read-out: Microsomal IC50 (µM) with 95% Confidence Intervals
T2 construct: from tissue; host or cells: human liver microsomes
T2 sequence (P05177 whole entry): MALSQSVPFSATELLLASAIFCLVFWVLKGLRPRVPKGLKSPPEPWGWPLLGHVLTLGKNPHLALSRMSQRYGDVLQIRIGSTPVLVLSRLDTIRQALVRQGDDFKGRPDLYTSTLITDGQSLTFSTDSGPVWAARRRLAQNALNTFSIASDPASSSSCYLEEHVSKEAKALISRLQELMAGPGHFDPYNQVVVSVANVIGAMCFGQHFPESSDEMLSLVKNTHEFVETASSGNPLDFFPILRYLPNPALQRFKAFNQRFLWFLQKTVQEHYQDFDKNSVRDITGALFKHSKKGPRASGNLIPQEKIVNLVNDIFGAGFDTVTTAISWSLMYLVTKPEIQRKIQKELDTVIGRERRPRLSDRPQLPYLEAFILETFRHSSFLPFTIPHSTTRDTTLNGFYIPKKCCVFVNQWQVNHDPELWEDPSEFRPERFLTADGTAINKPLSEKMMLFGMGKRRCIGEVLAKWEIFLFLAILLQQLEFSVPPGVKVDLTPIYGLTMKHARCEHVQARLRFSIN
Protocol: as §1

[7] = target: T3, CYP 2C19 (liver microsomes) (Homo sapiens, UniProt P33261); test: as above; format: in vitro ADME; settings: CYP 2C19, substrate TFD032, liver microsomes
T3 construct: from tissue; host or cells: human liver microsomes
T3 sequence (P33261 whole entry): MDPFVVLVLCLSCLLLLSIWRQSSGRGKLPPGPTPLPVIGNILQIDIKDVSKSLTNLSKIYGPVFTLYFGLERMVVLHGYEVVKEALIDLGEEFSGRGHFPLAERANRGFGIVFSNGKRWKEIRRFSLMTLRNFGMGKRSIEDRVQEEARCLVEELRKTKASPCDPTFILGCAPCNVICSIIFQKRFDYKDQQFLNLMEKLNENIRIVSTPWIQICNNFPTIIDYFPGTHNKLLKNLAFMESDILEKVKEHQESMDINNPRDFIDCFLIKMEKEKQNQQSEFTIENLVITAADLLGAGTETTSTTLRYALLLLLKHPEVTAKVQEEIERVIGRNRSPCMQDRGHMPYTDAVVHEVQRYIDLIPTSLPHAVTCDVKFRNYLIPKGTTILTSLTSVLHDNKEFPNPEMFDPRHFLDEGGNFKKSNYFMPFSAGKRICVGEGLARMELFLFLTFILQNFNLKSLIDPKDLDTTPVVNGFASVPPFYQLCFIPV
Protocol: as §1

[8] = target: T4, CYP 2D6 (liver microsomes) (Homo sapiens, UniProt P10635); test: as above; format: in vitro ADME; settings: CYP 2D6, substrate TFD023, liver microsomes; read-out: Microsomal IC50 (µM) with 95% Confidence Intervals
T4 construct: from tissue; host or cells: human liver microsomes
T4 sequence (P10635 whole entry): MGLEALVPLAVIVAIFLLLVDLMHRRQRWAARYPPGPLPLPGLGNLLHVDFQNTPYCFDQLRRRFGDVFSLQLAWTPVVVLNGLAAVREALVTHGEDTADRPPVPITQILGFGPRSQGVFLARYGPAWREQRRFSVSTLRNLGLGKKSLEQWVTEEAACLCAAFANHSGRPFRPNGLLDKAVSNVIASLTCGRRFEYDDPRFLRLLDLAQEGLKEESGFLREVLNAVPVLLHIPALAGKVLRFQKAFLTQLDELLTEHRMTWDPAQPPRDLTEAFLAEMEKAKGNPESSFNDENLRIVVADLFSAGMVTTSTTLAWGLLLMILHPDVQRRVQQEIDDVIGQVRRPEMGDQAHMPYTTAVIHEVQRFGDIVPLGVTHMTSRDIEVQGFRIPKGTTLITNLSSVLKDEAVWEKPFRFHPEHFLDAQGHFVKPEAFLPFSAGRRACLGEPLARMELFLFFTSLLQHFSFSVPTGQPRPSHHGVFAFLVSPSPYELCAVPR
Protocol: as §1

[9] = target: T5, CYP 2A6 (liver microsomes) (Homo sapiens, UniProt P11509); test: as above; format: in vitro ADME; settings: CYP 2A6, substrate coumarin, read-out: Microsomal IC50 (µM) with 95% Confidence Intervals
T5 construct: from tissue; host or cells: human liver microsomes
T5 sequence (P11509 1-494): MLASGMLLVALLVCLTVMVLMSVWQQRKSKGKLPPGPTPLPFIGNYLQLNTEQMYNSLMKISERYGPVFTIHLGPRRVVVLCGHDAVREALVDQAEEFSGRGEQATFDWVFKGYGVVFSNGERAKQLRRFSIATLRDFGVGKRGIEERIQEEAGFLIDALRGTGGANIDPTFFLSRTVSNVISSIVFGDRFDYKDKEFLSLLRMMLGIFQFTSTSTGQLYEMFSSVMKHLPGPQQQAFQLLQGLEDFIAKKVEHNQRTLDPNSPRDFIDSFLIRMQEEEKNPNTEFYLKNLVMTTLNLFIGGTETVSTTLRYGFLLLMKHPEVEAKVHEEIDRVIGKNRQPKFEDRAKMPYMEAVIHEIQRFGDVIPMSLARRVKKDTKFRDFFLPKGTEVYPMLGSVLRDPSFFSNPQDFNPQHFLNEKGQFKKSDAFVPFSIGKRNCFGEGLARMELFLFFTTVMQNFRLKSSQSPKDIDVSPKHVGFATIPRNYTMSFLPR
Protocol: as §1

[10] = tested on: recombinant human UGT1A7, 1A10, and UGT1A8; test: Glucuronidation by recombinant human UGTs; format: in vitro ADME; settings: incubation with recombinant human UGT1A7, 1A10 and UGT1A8

In the case of `C[C@@H]1O[C@@H](O[C@@H]2[C@@H](O)[C@H](OCCc3ccc(O)c(O)c3)O[C@H](CO)[C@H]2OC(=O)/C=C/c2ccc(O)c(O)c2)[C@H](O)[C@H](O)[C@H]1O` [Verbascoside], the IC50 [1] is listed as 382 ± 4.15 µM, the “Microsomal IC50 (µM) with 95% Confidence Intervals” value [2] is listed as “No inhibition ^b” and the IC50 (HepG2 cell line) is listed as > 400 µM. For the same molecule, the IC50 [3] was 11.4 µM, the EC50 [4] was 1.28 µM and the IC50 [5] was 76 µM. For the same molecule, the IC50 [6] was 24 µM, the “Microsomal IC50 (µM) with 95% Confidence Intervals” value [7] was “Stimulation ^c” and the “Microsomal IC50 (µM) with 95% Confidence Intervals” value ([7]; listed as verbascoside) was “weak ability to stimulate”. The IC50 [8] was 96 µM, the IC50 [9] was 135 µM and the Metabolites formed [10] was “low levels of glucuronide metabolites”.
